Test system: KRAS-mutant PDC multicell tumor spheroid viability
Experiment: Anticancer human tumor 521955-158-R2-J5-PDC patient-derived pancreatic carcinoma cell line growth inhibition [KRAS2]
Conditions: for IC50: curve of first compound; for viability, T/C: stronger effect = lower value
How it was run: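 KRAS-mutant tumor cells were grown as spheroids with HUVEC endothelial cells and human MSCs as stroma. Targeted agents were tested alone and with KRAS pathway inhibitors. Doses started at or near clinical Cmax, or 10 microM, descending half-log.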

[1] = second compound 0.0316 µM, first compound 0.0316 µM
[2] = second compound 0.0316 µM, first compound 0.1 µM
[3] = second compound 0.0316 µM, first compound 0.316 µM
[4] = second compound 0.0316 µM, first compound 1 µM
[5] = second compound 0.0316 µM, first compound 3.16 µM
[6] = second compound 0.0316 µM, first compound 10 µM
[7] = second compound 0.1 µM, first compound 0.0316 µM
[8] = second compound 0.1 µM, first compound 0.1 µM
[9] = second compound 0.1 µM, first compound 0.316 µM
[10] = second compound 0.1 µM, first compound 1 µM
[11] = second compound 0.1 µM, first compound 3.16 µM
[12] = second compound 0.1 µM, first compound 10 µM
[13] = second compound 0.316 µM, first compound 0.0316 µM
[14] = second compound 0.316 µM, first compound 0.1 µM
[15] = second compound 0.316 µM, first compound 0.316 µM
[16] = second compound 0.316 µM, first compound 1 µM
[17] = second compound 0.316 µM, first compound 3.16 µM
[18] = second compound 0.316 µM, first compound 10 µM
[19] = second compound 1 µM, first compound 0.0316 µM
[20] = second compound 1 µM, first compound 0.1 µM
[21] = second compound 1 µM, first compound 0.316 µM
[22] = second compound 1 µM, first compound 1 µM
[23] = second compound 1 µM, first compound 3.16 µM
[24] = second compound 1 µM, first compound 10 µM
[25] = second compound 3.16 µM, first compound 0.0316 µM
[26] = second compound 3.16 µM, first compound 0.1 µM
[27] = second compound 3.16 µM, first compound 0.316 µM
[28] = second compound 3.16 µM, first compound 1 µM
[29] = second compound 3.16 µM, first compound 3.16 µM
[30] = second compound 3.16 µM, first compound 10 µM
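Note: viability read after seven days of drug exposure.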

Compound | IC50 (second compound 0.1 µM) [nM] | IC50 (second compound 0.316 µM) [nM] | IC50 (second compound 1 µM) [nM] | IC50 (second compound 3.16 µM) [nM] | viability, T/C [7] [%] | viability, T/C [8] [%] | viability, T/C [9] [%] | viability, T/C [10] [%] | viability, T/C [11] [%] | viability, T/C [13] [%] | viability, T/C [14] [%] | viability, T/C [15] [%] | viability, T/C [16] [%] | viability, T/C [17] [%] | viability, T/C [19] [%] | viability, T/C [20] [%] | viability, T/C [21] [%] | viability, T/C [22] [%] | viability, T/C [23] [%] | viability, T/C [25] [%] | further results
CCNC(=O)CC1N=C(c2ccc(Cl)cc2)c2cc(OC)ccc2-n2c(C)nnc21 (stereo not given) + C=CC(=O)N1CCN(c2nc(OCC3CCCN3C)nc3c2CCN(c2cccc4cccc(C)c24)C3)CC1CC#N | 340 | 302 | 291 | < 31.6 | 96.3 | 79.4 | 50.7 | 36 | 34.3 | 103 | 97.6 | 47.8 | 35.2 | 31.6 | 84.3 | 77 | 48.1 | 30.1 | 28.1 | 29.8 | IC50 (second compound 0.0316 µM): 395 nM; viability, T/C [1]: 106%; viability, T/C [2]: 94.9%; viability, T/C [3]: 52.9%; viability, T/C [4]: 38%; viability, T/C [5]: 32.4%; viability, T/C [6]: 34.2%; viability, T/C [12]: 30.1%; viability, T/C [18]: 32.7%; viability, T/C [24]: 29.4%; viability, T/C [26]: 22%; viability, T/C [27]: 22.2%; viability, T/C [28]: 0.29%; viability, T/C [29]: 14.3%; viability, T/C [30]: 11.2%
CC(=O)OC12COC1CC(O)C1(C)C(=O)C(O)C3=C(C)C(OC(=O)C(O)C(NC(=O)OC(C)(C)C)c4ccccc4)CC(O)(C(OC(=O)c4ccccc4)C21)C3(C)C (stereo not given) + C=CC(=O)N1CCN(c2nc(=O)n(-c3c(C)ccnc3C(C)C)c3nc(-c4c(O)cccc4F)c(F)cc23)C(C)C1 | < 10 | < 10 | < 10 | < 10 | 15.5 | 15.1 | 15.4 | 15.7 | 17.4 | 13.3 | 11.5 | 12.6 | 13.6 | 20 | 10.9 | 10.9 | 12 | 11.9 | 12.1 | 10.9 | IC50 (second compound 10 µM): < 10 nM; viability, T/C (second compound 0.1 µM, first compound 0.01 µM): 21.5%; viability, T/C (second compound 0.316 µM, first compound 0.01 µM): 22.5%; viability, T/C (second compound 1 µM, first compound 0.01 µM): 15%; viability, T/C (second compound 3.16 µM, first compound 0.01 µM): 17.5%; viability, T/C [26]: 6.69%; viability, T/C [27]: 7.49%; viability, T/C [28]: 11.8%; viability, T/C [29]: 16.2%; viability, T/C (second compound 10 µM, first compound 0.01 µM): 20.7%; viability, T/C (second compound 10 µM, first compound 0.0316 µM): 13.1%; viability, T/C (second compound 10 µM, first compound 0.1 µM): 9.39%; viability, T/C (second compound 10 µM, first compound 0.316 µM): 9.36%; viability, T/C (second compound 10 µM, first compound 1 µM): 12.5%; viability, T/C (second compound 10 µM, first compound 3.16 µM): 12.7%
COC(=O)c1ccc2c(C(=Nc3ccc(N(C)C(=O)CN4CCN(C)CC4)cc3)c3ccccc3)c(O)[nH]c2c1 + C=CC(=O)N1CCN(c2nc(OCC3CCCN3C)nc3c2CCN(c2cccc4cccc(C)c24)C3)CC1CC#N | 864 | 280 | < 31.6 | < 31.6 | 64.2 | 69.8 | 65.2 | 47.7 | 8.93 | 72.1 | 69.5 | 43.7 | 28.6 | 2.62 | 49.4 | 50.6 | 37.3 | 26.4 | 1.74 | 1.66 | IC50 (second compound 0.0316 µM): 1160 nM; viability, T/C [1]: 78%; viability, T/C [2]: 67.5%; viability, T/C [3]: 75.1%; viability, T/C [4]: 55.9%; viability, T/C [5]: 9.24%; viability, T/C [6]: 0.33%; viability, T/C [12]: 0.33%; viability, T/C [18]: 1.9%; viability, T/C [24]: 0.25%; viability, T/C [26]: 0.72%; viability, T/C [27]: 0.77%; viability, T/C [28]: 0.34%; viability, T/C [29]: 0.55%; viability, T/C [30]: 0.44%
